Data taken from patent publication US12172983B2, “EGFR inhibitors” (Blueprint Medicines Corporation, priority 2019, dated 2024).
Read-outs that look alike come from different tables or passages of the source.

Experiments:
[1] = tested on: phosphorylation of EGFR (Tyr1068) in NCI-H1975 cell line that harbors the EGFR L858R T790M mutations; test: NCI-H1975 pEGFR AlphaLISA assay; type: cell-based; conditions: 4-5 hours incubation, read-out: Ext pEGFR H1975
Description: Inhibitory effects of the compounds of the disclosure were evaluated in cellular assays that measure level of intracellular phosphorylation of EGFR in NCI-H1975 cell line that harbors the EGFR L858R T790M mutations (ATCC, CRL-5908) using AlphaLISA sureFire ultra p-EGFR (Tyr1068) assay kit (PerkinElmer, ALSU-PEGFR-A50K). The NCI-H1975 cells were seeded at 12.5K/well in 22 μL into 384 well opti plate (PerkinElmer, 6007299) and adhering overnight at 37 C/5% CO2. On the next day, the test compounds and DMSO control were added into H1975 cell plate followed by incubation at 37 C/5% CO2 for 4-5 hours. The cells were then spin down in the 384-well plate and lysed with 10 μL of 1×AlphaLISA lysis buffer followed by shaking at 600 rpm for 10 minutes at room temperature. After that, 5 μL of an acceptor bead mix was added to each well followed by incubation at room temperature for 1.5-2 h in dark. Then 5 μL of a donor bead mix was added to each well followed by overnight incubation at room temperature in dark. On the next day, the plate was read at a compatible plate reader to obtain pEGFR signal. Percent of pEGFR inhibition was plotted against log concentration of compounds to generate IC50 values.

EGFR (L858R T790M C797S) = molecular target: T1, EGFR (L858R T790M C797S) (Homo sapiens, UniProt P00533, C797S/L858R/T790M); test: Biochemical EGFR inhibition assay (Caliper mobility shift), EGFR LRTMCS mutant; conditions: inhibitory activity against EGFR LRTMCS mutant; apparent IC50; read-out: Ext Enz LRTMCS
T1 construct: purchased SignalChem E10-122VG
T1 sequence (P00533 25-1210 T790M/C797S/L858R): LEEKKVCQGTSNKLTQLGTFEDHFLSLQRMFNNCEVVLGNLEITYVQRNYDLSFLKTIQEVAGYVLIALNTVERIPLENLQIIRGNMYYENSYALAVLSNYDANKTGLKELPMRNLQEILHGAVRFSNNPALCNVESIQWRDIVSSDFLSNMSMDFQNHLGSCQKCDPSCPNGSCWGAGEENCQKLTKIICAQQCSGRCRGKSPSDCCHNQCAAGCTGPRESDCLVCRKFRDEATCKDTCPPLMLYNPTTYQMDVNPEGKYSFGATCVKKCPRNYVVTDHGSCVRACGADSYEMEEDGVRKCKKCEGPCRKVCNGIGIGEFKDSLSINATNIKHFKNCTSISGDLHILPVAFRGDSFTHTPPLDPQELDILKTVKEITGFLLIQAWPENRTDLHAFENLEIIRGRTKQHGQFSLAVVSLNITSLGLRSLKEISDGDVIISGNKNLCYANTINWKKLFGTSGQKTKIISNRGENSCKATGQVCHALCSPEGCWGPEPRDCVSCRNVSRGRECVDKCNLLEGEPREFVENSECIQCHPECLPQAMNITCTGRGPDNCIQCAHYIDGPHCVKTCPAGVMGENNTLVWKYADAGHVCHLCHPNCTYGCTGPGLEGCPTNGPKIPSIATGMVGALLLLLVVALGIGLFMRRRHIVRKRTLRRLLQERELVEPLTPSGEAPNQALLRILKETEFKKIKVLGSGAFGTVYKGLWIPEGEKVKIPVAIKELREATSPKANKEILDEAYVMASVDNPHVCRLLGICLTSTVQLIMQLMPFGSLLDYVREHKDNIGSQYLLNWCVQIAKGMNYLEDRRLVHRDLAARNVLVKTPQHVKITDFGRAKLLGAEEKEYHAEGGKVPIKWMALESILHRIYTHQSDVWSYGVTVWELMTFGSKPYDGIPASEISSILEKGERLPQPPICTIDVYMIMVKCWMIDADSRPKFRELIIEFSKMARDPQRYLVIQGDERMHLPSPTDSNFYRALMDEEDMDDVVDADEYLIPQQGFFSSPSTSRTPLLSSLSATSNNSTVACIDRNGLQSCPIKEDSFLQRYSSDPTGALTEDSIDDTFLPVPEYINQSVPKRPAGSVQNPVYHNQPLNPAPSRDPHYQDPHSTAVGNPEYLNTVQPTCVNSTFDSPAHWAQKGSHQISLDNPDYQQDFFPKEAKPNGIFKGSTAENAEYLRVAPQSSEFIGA
Description: Reactions proceeded until between 10% to 20% total peptides were phosphorylated at room temperature (25° C.) and were terminated with 35 mM 2,2′,2″,2′″-(ethane-1,2-diyldinitrilo)tetraacetic acid (EDTA). Product was detected using the Caliper mobility shift detection method where the phosphorylated peptide (product) and substrate were electrophoretically separated and measured. Percent activity was plotted against log concentration of compound and points to generate an apparent IC50.

[2] = Homo sapiens, NCI-H1975, inhibition of phosphorylation of mutant EGFR in NCI-H1975 cells
[3] = inhibition of phosphorylation of mutant EGFR in NCI-H1975 cells

Structure (SMILES) | IC50 [1, 2] | IC50 (EGFR (L858R T790M C797S)) | IC50 [1, 3]
CC(C)c1ncc(N2C[C@H](CS(C)(=O)=O)[C@H]2C)c2cnc(Nc3ccnc(N4CC[C@@H](OCC(C)(C)O)[C@@H](F)C4)n3)cc12 [Compound 258, 1-{[(3S,4R)-3-fluoro-1-[4-({8-[(2R,3S)-3-(methanesulfonylmethyl)-2-methylazetidin-1-yl]-5-(propan-2-yl)-2,6-naphthyridin-3-yl}amino)pyrimidin-2-yl]piperidin-4-yl]oxy}-2-methylpropan-2-ol] | ≤ 10 nM | ≤ 15 nM | 
CC(C)c1ccc(N2CC(CS(C)(=O)=O)C2)c2cnc(Nc3ccnc(N4CC[C@H](O)[C@H](C)C4)n3)cc12 (single isomer, unassigned) [Compound 20, (3R,4S)-1-[4-({8-[3-(methanesulfonylmethyl)azetidin-1-yl]-5-(propan-2-yl)isoquinolin-3-yl}amino)pyrimidin-2-yl]-3-methylpiperidin-4-ol or (3S,4R)-1-[4-({8-[3-(methanesulfonylmethyl)azetidin-1-yl]-5-(propan-2-yl)isoquinolin-3-yl}amino)pyrimidin-2-yl]-3-methylpiperidin-4-ol] |  | 15.1 to 20 nM | 30.1 to 50 nM
COC1(CO)CCN(c2nccc(Nc3cc4c(C(C)C)ccc(N5C[C@H](CS(C)(=O)=O)[C@H]5C)c4cn3)n2)CC1 [Compound 175, {1-[4-({8-[(2R,3S)-3-(methanesulfonylmethyl)-2-methylazetidin-1-yl]-5-(propan-2-yl)isoquinolin-3-yl}amino)pyrimidin-2-yl]-4-methoxypiperidin-4-yl}methanol] | ≤ 10 nM | ≤ 15 nM | 
[2H]C([2H])([2H])O[C@H]1[C@@H](O)CN(c2nccc(Nc3cc4c(C(C)C)ccc(N5C[C@H](CS(C)(=O)=O)[C@H]5C)c4cn3)n2)CC1(F)F (single isomer, unassigned) [Compound 313, (3S,4S)-5,5-difluoro-1-(4-((5-isopropyl-8-((2R,3S)-2-methyl-3-((methylsulfonyl)methyl)azetidin-1-yl)isoquinolin-3-yl)amino)pyrimidin-2-yl)-4-(^2H3)methoxypiperidin-3-ol or (3R,4R)-5,5-difluoro-1-(4-((5-isopropyl-8-((2R,3S)-2-methyl-3-((methylsulfonyl)methyl)azetidin-1-yl)isoquinolin-3-yl)amino)pyrimidin-2-yl)-4-(^2H3)methoxypiperidin-3-ol] | ≤ 10 nM | 20.1 to 30 nM | 
CC(C)c1cnc(N2CC(CS(C)(=O)=O)C2)c2cnc(Nc3ccnc(N4C[C@H]5COC[C@H]5C4)n3)cc12 [Compound 14, N-{2-[(3aR,6aS)-hexahydro-1H-furo[3,4-c]pyrrol-5-yl]pyrimidin-4-yl}-8-[3-(methanesulfonylmethyl)azetidin-1-yl]-5-(propan-2-yl)-2,7-naphthyridin-3-amine or N-{2-[(3aS,6aR)-hexahydro-1H-furo[3,4-c]pyrrol-5-yl]pyrimidin-4-yl}-8-[3-(methanesulfonylmethyl)azetidin-1-yl]-5-(propan-2-yl)-2,7-naphthyridin-3-amine] |  | 15.1 to 20 nM | 30.1 to 50 nM
CC(C)c1ccc(N2CC(CS(C)(=O)=O)C2)c2cnc(Nc3ccnc(N4CC(C)(C)[C@H](O)C(F)(F)C4)n3)cc12 (single isomer, unassigned) [Compound 213, (4S)-3,3-difluoro-1-[4-({8-[3-(methanesulfonylmethyl)azetidin-1-yl]-5-(propan-2-yl)isoquinolin-3-yl}amino)pyrimidin-2-yl]-5,5-dimethylpiperidin-4-ol or (4R)-3,3-difluoro-1-[4-({8-[3-(methanesulfonylmethyl)azetidin-1-yl]-5-(propan-2-yl)isoquinolin-3-yl}amino)pyrimidin-2-yl]-5,5-dimethylpiperidin-4-ol] | ≤ 10 nM | ≤ 15 nM | 
CC(C)c1cnc(N2C[C@H](CS(C)(=O)=O)[C@H]2C)c2cnc(Nc3ccnc(N4CC[C@](C)(O)[C@H](F)C4)n3)cc12 (single isomer, unassigned) [Compound 135] | ≤ 10 nM | ≤ 15 nM | 
CC(C)c1ccc(N2C[C@H](CS(C)(=O)=O)[C@H]2C)c2cnc(Nc3ccnc(N4CC[C@H](OCCN(C)C)[C@H](F)C4)n3)cc12 [Compound 253, N-{2-[(3R,4S)-4-[2-(dimethylamino)ethoxy]-3-fluoropiperidin-1-yl]pyrimidin-4-yl}-8-[(2R,3S)-3-(methanesulfonylmethyl)-2-methylazetidin-1-yl]-5-(propan-2-yl)isoquinolin-3-amine] | ≤ 10 nM | ≤ 15 nM | 
CC(C)c1cnc(N2CC(CS(C)(=O)=O)C2)c2cnc(Nc3ccnc(N4CCN(C)CC4)n3)cc12 [Compound 3, 8-[3-(methanesulfonylmethyl)azetidin-1-yl]-N-[2-(4-methylpiperazin-1-yl)pyrimidin-4-yl]-5-(propan-2-yl)-2,7-naphthyridin-3-amine] | 30.1 to 50 nM | 20.1 to 30 nM | 
CNCCO[C@H]1CCN(c2nccc(Nc3cc4c(C(C)C)ccc(N5C[C@H](CS(C)(=O)=O)[C@H]5C)c4cn3)n2)C[C@H]1F [Compound 297, N-{2-[(3R,4S)-3-fluoro-4-[2-(methylamino)ethoxy]piperidin-1-yl]pyrimidin-4-yl}-8-[(2R,3S)-3-(methanesulfonylmethyl)-2-methylazetidin-1-yl]-5-(propan-2-yl)isoquinolin-3-amine] | ≤ 10 nM | ≤ 15 nM | 
CCS(=O)(=O)CC1CN(c2ccc(C(C)C)c3cc(Nc4ccnc(N5CC[C@H](OCCO)[C@H](F)C5)n4)ncc23)C1 [Compound 293, 2-{[(3R,4S)-1-{4-[(8-{3-[(ethanesulfonyl)methyl]azetidin-1-yl}-5-(propan-2-yl)isoquinolin-3-yl)amino]pyrimidin-2-yl}-3-fluoropiperidin-4-yl]oxy}ethan-1-ol] | ≤ 10 nM | ≤ 15 nM | 
CC(C)c1ccc(N2CC(CS(C)(=O)=O)C2)c2cnc(Nc3ccnc(N4C[C@H](F)[C@H](O)C(C)(C)C4)n3)cc12 (single isomer, unassigned) [Compound 109, (4S,5R)-5-fluoro-1-[4-({8-[3-(methanesulfonylmethyl)azetidin-1-yl]-5-(propan-2-yl)isoquinolin-3-yl}amino)pyrimidin-2-yl]-3,3-dimethylpiperidin-4-ol or (4R,5S)-5-fluoro-1-[4-({8-[3-(methanesulfonylmethyl)azetidin-1-yl]-5-(propan-2-yl)isoquinolin-3-yl}amino)pyrimidin-2-yl]-3,3-dimethylpiperidin-4-ol] | ≤ 10 nM | ≤ 15 nM | 
CO[C@H]1CN(c2nccc(Nc3cc4c(C(C)C)ccc(N5C[C@H](CS(C)(=O)=O)[C@H]5C)c4cn3)n2)C[C@@H](F)[C@H]1O (racemic) [Compound 200, (3R,4S,5S)-3-fluoro-1-(4-((5-isopropyl-8-((2R,3S)-2-methyl-3-((methylsulfonyl)methyl)azetidin-1-yl)isoquinolin-3-yl)amino)pyrimidin-2-yl)-5-methoxypiperidin-4-ol and (3S,4R,5R)-3-fluoro-1-(4-((5-isopropyl-8-((2R,3S)-2-methyl-3-((methylsulfonyl)methyl)azetidin-1-yl)isoquinolin-3-yl)amino)pyrimidin-2-yl)-5-methoxypiperidin-4-ol] | ≤ 10 nM | 15.1 to 20 nM | 
CO[C@H]1CN(c2nccc(Nc3cc4c(C(C)C)ccc(N5C[C@H](CS(C)(=O)=O)[C@H]5C)c4cn3)n2)CC[C@@H]1O (single isomer, unassigned) [Compound 98, (3R,4R)-1-[4-({8-[(2R,3S)-3-(methanesulfonylmethyl)-2-methylazetidin-1-yl]-5-(propan-2-yl)isoquinolin-3-yl}amino)pyrimidin-2-yl]-3-methoxypiperidin-4-ol or (3S,4S)-1-[4-({8-[(2R,3S)-3-(methanesulfonylmethyl)-2-methylazetidin-1-yl]-5-(propan-2-yl)isoquinolin-3-yl}amino)pyrimidin-2-yl]-3-methoxypiperidin-4-ol] | 10.1 to 20 nM | ≤ 15 nM | 
CNCCO[C@@H]1CCN(c2nccc(Nc3cc4c(C(C)C)ccc(N5C[C@H](CS(C)(=O)=O)[C@H]5C)c4cn3)n2)C[C@@H]1F [Compound 240, N-{2-[(3S,4R)-3-fluoro-4-[2-(methylamino)ethoxy]piperidin-1-yl]pyrimidin-4-yl}-8-[(2R,3S)-3-(methanesulfonylmethyl)-2-methylazetidin-1-yl]-5-(propan-2-yl)isoquinolin-3-amine] | ≤ 10 nM | ≤ 15 nM | 
